Assay results as given in patent US20220125959A1, “PROSTATE-SPECIFIC MEMBRANE ANTIGEN (PSMA) INHIBITORS AS DIAGNOSTIC AND RADIONUCLIDE THERAPEUTIC AGENTS” (FIVE ELEVEN PHARMA INC., priority 2019, published 2022).
Values belong to the compound of their own block, whether it stands above or below them.

Assays:
[1] = tested on: PC3-PIP (PSMA positive) and PC-3 tumors (PSMA negative); experiment: Biodistribution of [68Ga]4 in tumor bearing nude mice; type: in vivo, CD-1 male nude mice
Experimental: (§1) ^68Ga labeling: To 15 nmole ligand 4 (1 mg/mL DMSO) were added 20 μL of 2.0 N NaOAc, 500 μL ^68Ga-solution (2.25 mCi). The reaction was heated in a heating block at 90° C. for 10 minutes in a 3 mL closed vial. After cooling, the sample was analyzed by HPLC (HPLC: Eclise XDB C18 150×4.6 mm, gradient, 2 mL/min; A: 0.1% TFA in water; B: 0.1% TFA in ACN: 0-2 min 100% A; 2-4 min: from 0% to 100% B; 4-9 min: 100% B; 9-10 min: from 100% to 0% B). Radiochemical purity of [^68Ga]4 was >99% RCP (FIG. 1) and injected doses were stable at 2 hr after formulation.
For iv injection 150 μL of labeled solution was diluted with saline to 3 mL. Mice were injected with 150 μL of formulated dose. Injected radioactivity was 19-28 μCi and PSMA ligand amount was constant at 0.2 nmole/mouse.
Biodistribution of [^68Ga]4, [^177Lu]4 and [^177Lu]7 was determined in nude mice bearing PIP PC3 (PSMA positive) and PC3 (PSMA negative) tumors on the left and right shoulder, respectively, over a period of 192 h (Table 3a, 3b and 3c). […] The uptake in PC3 tumors (PSMA negative) of both ligands, [^177Lu]4 and [^177Lu]7, was clearly much lower than those of PC-3 PIP tumors (PSMA positive).

[2] = Stability of injected doses after formulation; type: physicochemical; conditions: at 2 hr after formulation
Experimental: as §1
^177Lu labeling: To 10 μg ligand (1 mg/mL DMSO) were added 15 μL of 2.0 N NaOAc, 400 μL 0.05 N HCl, and 20 μL ^177Lu-solution (780 μCi (Capintec setting 450 (reading×10)). The reaction was heated with a heating block at 95° C. for 1 hour in a 3 mL closed vial. After cooling, the sample was analyzed by HPLC (HPLC: Eclipse XDB-C18 150×4.6 mm, gradient, 1 mL/min; A: 0.1% TFA in water; B: 0.1% TFA in ACN: 0-4 min A/B 85/15%; 4-11 min: from 85/15 to 30/70%; 11-14 min: from 30/70% to 85/15%). Radiochemical purity of [^177Lu]4 (FIG. 2) and [^177Lu]7 was >98% and injected doses were stable at 48 hr after formulation.
For iv injection 150 μL of labeled solution was diluted with saline to 3.75mL. Mice were injected with 150 μL of formulated dose. Injected radioactivity was 100 μCi and PSMA ligand amount was constant at 0.72 nmole/mouse.

[3] = tested on: PSMA-negative cell line, PC3; experiment: In vitro cell uptake, PC3 cells; type: cell-based; conditions: PC3 (do not express PSMA), 60 min
Experimental: (§2) To determine the cell uptakes of the [^177Lu] labelled ligands, 5×10^5 cells/well were grown in 12-well plates in 1 mL of medium for 48 h. The cells were washed twice with PBS, and 900 μL fresh media were added. Radiolabelled ligand was added and the PSMA-inhibitor (2-PMPA) was applied in a final concentration of 10 μM to determine unspecific binding. All samples were prepared in triplicate. Following the incubation at 37° C., cells were washed twice to remove unbound activity and afterwards lysed in 1 mL of 0.5 M NaOH. Activity was measured in a gamma counter. Aliquots of the solution added to the cells were also measured for the calculation of the cellular uptake as % ID.

[4] = tested on: PSMA-positive cell line, PIP PC3; experiment: In vitro cell uptake, PIP PC3 cells; type: cell-based
Experimental: as §2, with “Radiolabelled ligand was added and the PSMA-inhibitor (2-PMPA) was applied in a final concentration of 10 μM to determine unspecific binding.” left out

- Biodistribution: Blood ([1]; 30 min): 1.22 ± 0.06 % dose/g
- Biodistribution: Bone ([1]; 30 min): 0.35 ± 0.01 % dose/g
- Biodistribution: Brain ([1]; 30 min): 0.04 ± 0.01 % dose/g
- Biodistribution: Heart ([1]; 30 min): 0.75 ± 0.12 % dose/g
- Biodistribution: Intestine ([1]; 30 min): 0.48 ± 0.12 % dose/g
- Biodistribution: Kidney ([1]; 30 min): 137.36 ± 12.92 % dose/g
- Biodistribution: Liver ([1]; 30 min): 3.23 ± 0.31 % dose/g
- Biodistribution: Lung ([1]; 30 min): 2.46 ± 0.37 % dose/g
- Biodistribution: Muscle ([1]; 30 min): 0.51 ± 0.07 % dose/g
- Biodistribution: PC3-PSMA- tumor ([1]; 30 min): 1.59 ± 0.27 % dose/g
- Biodistribution: PIP-PSMA+ tumor ([1]; 30 min): 12.88 ± 2.08 % dose/g
- Biodistribution: Pancreas ([1]; 30 min): 1.57 ± 0.93 % dose/g
- Biodistribution: Skin ([1]; 30 min): 1.71 ± 0.22 % dose/g
- Biodistribution: Spleen ([1]; 30 min): 7.19 ± 1.55 % dose/g
- Biodistribution: Stomach ([1]; 30 min): 0.44 ± 0.28 % dose/g
- Biodistribution: Blood ([1]; 1 hr): 0.65 ± 0.08 % dose/g
- Biodistribution: Bone ([1]; 1 hr): 0.17 ± 0.01 % dose/g
- Biodistribution: Brain ([1]; 1 hr): 0.03 ± 0.00 % dose/g
- Biodistribution: Heart ([1]; 1 hr): 0.43 ± 0.06 % dose/g
- Biodistribution: Intestine ([1]; 1 hr): 0.44 ± 0.13 % dose/g
- Biodistribution: Kidney ([1]; 1 hr): 166.31 ± 18.62 % dose/g
- Biodistribution: Liver ([1]; 1 hr): 2.87 ± 0.30 % dose/g
- Biodistribution: Lung ([1]; 1 hr): 1.52 ± 0.28 % dose/g
- Biodistribution: Muscle ([1]; 1 hr): 0.21 ± 0.05 % dose/g
- Biodistribution: PC3-PSMA- tumor ([1]; 1 hr): 1.14 ± 0.25 % dose/g
- Biodistribution: PIP-PSMA+ tumor ([1]; 1 hr): 13.86 ± 1.54 % dose/g
- Biodistribution: Pancreas ([1]; 1 hr): 0.75 ± 0.13 % dose/g
- Biodistribution: Skin ([1]; 1 hr): 0.64 ± 0.26 % dose/g
- Biodistribution: Spleen ([1]; 1 hr): 4.60 ± 1.80 % dose/g
- Biodistribution: Stomach ([1]; 1 hr): 0.34 ± 0.19 % dose/g
- Biodistribution: Blood ([1]; 2 hr): 0.53 ± 0.11 % dose/g
- Biodistribution: Bone ([1]; 2 hr): 0.19 ± 0.03 % dose/g
- Biodistribution: Brain ([1]; 2 hr): 0.03 ± 0.00 % dose/g
- Biodistribution: Heart ([1]; 2 hr): 0.25 ± 0.04 % dose/g
- Biodistribution: Intestine ([1]; 2 hr): 0.38 ± 0.04 % dose/g
- Biodistribution: Kidney ([1]; 2 hr): 116.41 ± 51.94 % dose/g
- Biodistribution: Liver ([1]; 2 hr): 2.54 ± 0.16 % dose/g
- Biodistribution: Lung ([1]; 2 hr): 1.05 ± 0.08 % dose/g
- Biodistribution: Muscle ([1]; 2 hr): 0.14 ± 0.07 % dose/g
- Biodistribution: PC3-PSMA- tumor ([1]; 2 hr): 0.74 ± 0.23 % dose/g
- Biodistribution: PIP-PSMA+ tumor ([1]; 2 hr): 16.74 ± 2.75 % dose/g
- Biodistribution: Pancreas ([1]; 2 hr): 0.50 ± 0.15 % dose/g
- Biodistribution: Skin ([1]; 2 hr): 0.62 ± 0.31 % dose/g
- Biodistribution: Spleen ([1]; 2 hr): 3.41 ± 2.46 % dose/g
- Biodistribution: Stomach ([1]; 2 hr): 0.20 ± 0.09 % dose/g
- Tumor uptake ([1]; suitable for PET imaging): excellent tumor uptake
- Stability of injected doses [2]: stable
Structure (SMILES): O=C(O)CCC(C(=O)O)N1CCN(CC(=O)O)CCN(C(CCC(=O)NCC(=O)N[C@@H](Cc2ccc(OCC(=O)N[C@@H](Cc3ccccc3)C(=O)NCCCC[C@H](NC(=O)N[C@@H](CCC(=O)O)C(=O)O)C(=O)O)cc2)C(=O)O)C(=O)O)CCN(CC(=O)O)CC1.[68Ga] (stereo partly drawn) [[^68Ga]4]

Structure (SMILES): O=C(O)CC[C@H](NC(=O)N[C@@H](CCCCNC(=O)[C@H](Cc1ccc2ccccc2c1)NC(=O)[C@H]1CC[C@H](CNC(=O)CN2CCN(CC(=O)O)CCN(CC(=O)O)CCN(CC(=O)O)CC2)CC1)C(=O)O)C(=O)O.[177Lu] [[^177Lu]PSMA-617, reference compound]
- In vitro cell uptake [3]: 0.3 % ID per 5 × 10^5 cells
- In vitro cell uptake ([4]; PIP PC3, 5 min): 3.5 % ID per 5 × 10^5 cells
- In vitro cell uptake ([4]; PIP PC3, 15 min): 5.8 % ID per 5 × 10^5 cells
- In vitro cell uptake ([4]; PIP PC3, 30 min): 6.8 % ID per 5 × 10^5 cells
- In vitro cell uptake ([4]; PIP PC3, 60 min): 8.2 % ID per 5 × 10^5 cells
- In vitro cell uptake ([4]; PIP PC3, 60 min, with PSMA inhibitor (2-PMPA, 2 uM)): 1.0 % ID per 5 × 10^5 cells
- In vitro cell uptake ([4]; PIP PC3, 120 min): 9.6 % ID per 5 × 10^5 cells
